Experimental findings from patent publication US7803816B2, “MCH receptor antagonists” (Hoffmann-La Roche Inc., priority 2005, dated 2010) are described below.

SMILES strings stand for the structures.

For orientation: IC50 means the concentration that gives 50% inhibition.

The target of the assay is T1, recombinant human MCHR1-receptors (Homo sapiens, UniProt Q99705).
T1 construct: expressed in transfected cells
Kind of assay: MCHR filter binding assay (competition binding). Particulars: membranes from CHO-K1 cells expressing human MCHR1; 0.2 nM [Phe13,[125I]Tyr19]-MCH; read-out: IC50 (nM), in vitro activity (binding assay). The procedure:
MCHR Filter Binding Assay
Competition binding assays were performed using membranes from CHO-K1 cells stably expressing the recombinant human MCHR1-receptors. Binding reactions (90 μl, final volume) were carried out at rt by incubating 2.8 μg membranes with 0.2 nM [Phe^13,[^125I]Tyr^19]-MCH (PerkinElmer) in the absence or presence of various concentrations of competing ligands in binding buffer (50 mM HEPES, 2.5 mM CaCl2, 0.05 mM BSA, 1 mM phenanthroline, 0.03 mM Triton X-100). [Phe^13,[^125I]Tyr^19]-MCH was added 15 min following the addition of unlabeled competing ligands, and the reactions incubated for a 1 h period. The reactions were terminated by rapid filtration over pretreated 96-well filter plates (Millipore; MultiScreen 0.65 μm GFB filter plates). Filter Plates were treated for 12 h at 4° C. with a 0.5% polyvinylpyrrolidone solution containing 1% BSA and 0.1% Tween 20, and then washed with an ice-cold solution of 10 mM Tris, pH 7.5 (5×200 μl). The plates were drained following a 5 min incubation with binding buffer (200 μl) at rt. Following termination of the binding reactions, the filters were washed with ice-cold binding buffer (4×200 μl). The filter plates were air dried for 30 min, scintillation cocktail (60 μl) added to each well and radioactivity bound to the plates was determined using a Micro-beta plate reader (Wallace/PerkinElmer).

T1 sequence (Q99705 whole entry): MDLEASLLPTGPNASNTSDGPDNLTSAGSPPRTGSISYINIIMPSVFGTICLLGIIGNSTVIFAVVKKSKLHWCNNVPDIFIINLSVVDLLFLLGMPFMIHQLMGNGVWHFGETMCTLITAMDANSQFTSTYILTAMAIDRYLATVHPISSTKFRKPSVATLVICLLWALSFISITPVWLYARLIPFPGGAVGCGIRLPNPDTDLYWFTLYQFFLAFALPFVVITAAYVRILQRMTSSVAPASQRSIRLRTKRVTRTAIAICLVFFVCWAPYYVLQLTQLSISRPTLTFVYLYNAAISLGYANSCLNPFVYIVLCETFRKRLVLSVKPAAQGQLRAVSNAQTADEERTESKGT

With `CCC(=O)Nc1ccc2c(c1)C[C@H](CN1CC[C@@H](n3c(C(C)C)nc4cc(C)ccc43)[C@H](OC)C1)C2` [Example 45, N-{(R)-2-[(3R,4R)-4-(2-Isopropyl-5-methyl-benzoimidazol-1-yl)-3-methoxy-piperidin-1-ylmethyl]-indan-5-yl}-propionamide], the concentration for half-maximal inhibition (IC50) fell in the range of 20 to 200 nM. In the case of `Cc1ccc2c(c1)nc(C)n2C1CCN(CC2Cc3ccc(NC(=O)C(C)C)cc3C2)CC1` (stereo not shown) [Example 46, N-{2-[4-(2,5-Dimethyl-benzoimidazol-1-yl)-piperidin-1-ylmethyl]-indan-5-yl}-isobutyramide], the concentration for half-maximal inhibition (IC50) lay in the range of 20 to 200 nM. Take `CO[C@@H]1CN(C[C@@H]2Cc3ccc(NC(=O)C(C)C)cc3C2)CC[C@H]1n1c(C)nc2cc(C)ccc21` [Example 47, N-{(R)-2-[(3R,4R)-4-(2,5-Dimethyl-benzoimidazol-1-yl)-3-methoxy-piperidin-1-ylmethyl]-indan-5-yl}-isobutyramide]: the IC50 is 20 to 200 nM. `Cc1ccc2c(c1)nc(C)n2C1CCN(C[C@H]2Cc3ccc(NC(=O)C(C)C)cc3C2)CC1` [Example 48, N-{(S)-2-[4-(2,5-Dimethyl-benzoimidazol-1-yl)-piperidin-1-ylmethyl]-indan-5-yl}-isobutyramide]: the IC50 lay in the range of 20 to 200 nM. Take `CO[C@H]1CN(C[C@H]2Cc3ccc(NC(=O)C(C)C)cc3C2)CC[C@@H]1n1c(C)nc2cc(C)ccc21` [Example 49, N-{(S)-2-[(3S,4S)-4-(2,5-Dimethyl-benzoimidazol-1-yl)-3-methoxy-piperidin-1-ylmethyl]-indan-5-yl}-isobutyramide]: the 50% inhibitory concentration (IC50) lay within 20 to 200 nM.

Regarding `CO[C@@H]1CN(CC2Cc3ccccc3C2)CC[C@H]1n1c(C)nc2cc(C)ccc21` [Example 50, 1-((3R,4R)-1-Indan-2-ylmethyl-3-methoxy-piperidin-4-yl)-2,5-dimethyl-1H-benzoimidazole], the IC50 fell in the range of 20 to 200 nM. Consider `CCC(C)C(=O)Nc1ccc2c(c1)CC(CN1CCC(n3c(C)nc4cc(C)ccc43)CC1)C2` (stereo not shown) [Example 51, N-{2-[4-(2,5-Dimethyl-benzoimidazol-1-yl)-piperidin-1-ylmethyl]-indan-5-yl}-2-methyl-butyramide], for which the concentration for half-maximal inhibition (IC50) is 20 to 200 nM. Then `Cc1ccc2c(c1)nc(-c1ccccc1)n2C1CCN(C[C@@H]2Cc3ccc(N)cc3C2)CC1` [Example 52, (R)-2-[4-(5-Methyl-2-phenyl-benzoimidazol-1-yl)-piperidin-1-ylmethyl]-indan-5-ylamine], with 20 to 200 nM; and `Cc1ccc2c(c1)nc(C)n2C1CCN(CC2=Cc3ccc(NC(=O)C(C)C)cc3C2)CC1` [Example 53, N-{2-[4-(2,5-Dimethyl-benzoimidazol-1-yl)-piperidin-1-ylmethyl]-3H-inden-5-yl}-isobutyramide], with 20 to 200 nM; and `Cc1ccc2c(c1)nc(C)n2C1CCN(CC2=Cc3cc(NC(=O)C(C)C)ccc3C2)CC1` [Example 54, N-{2-[4-(2,5-Dimethyl-benzoimidazol-1-yl)-piperidin-1-ylmethyl]-1H-inden-5-yl}-isobutyramide], with 200 to 5000 nM. On to `CCC(=O)Nc1ccc2c(c1)C[C@H](CN1CCC(n3c(C(C)C)nc4cc(C)ccc43)C(OC)C1)C2` (stereo partly drawn) [Example 59, N-{(R)-2-[4-(2-Isopropyl-5-methyl-benzoimidazol-1-yl)-3-methoxy-piperidin-1-ylmethyl]-indan-5-yl}-propionamide], for which the concentration for half-maximal inhibition (IC50) was < 20 nM. With `CCC(=O)Nc1ccc2c(c1)C[C@H](CN1CC[C@H](n3c(C4CC4)nc4cc(C)ccc43)[C@@H](OC)C1)C2` [Example 60, N-{(R)-2-[(3S,4S)-4-(2-Cyclopropyl-5-methyl-benzoimidazol-1-yl)-3-methoxy-piperidin-1-ylmethyl]-indan-5-yl}-propionamide], the IC50 was < 20 nM.

For `CCc1nc2cc(C)ccc2n1C1CCN(C[C@@H]2Cc3ccc(NC(=O)C(C)C)cc3C2)CC1OC` (stereo partly drawn) [Example 61, N-{(R)-2-[4-(2-Ethyl-5-methyl-benzoimidazol-1-yl)-3-methoxy-piperidin-1-ylmethyl]-indan-5-yl}-isobutyramide], the IC50 is < 20 nM. With `CCCC(=O)Nc1ccc2c(c1)C[C@H](CN1CC[C@H](n3c(C4CC4)nc4cc(C)ccc43)[C@@H](OC)C1)C2` [Example 62, N-{(R)-2-[(3S,4S)-4-(2-Cyclopropyl-5-methyl-benzoimidazol-1-yl)-3-methoxy-piperidin-1-ylmethyl]-indan-5-yl}-butyramide] the figure was < 20 nM; with `CO[C@H]1CN(C[C@@H]2Cc3ccc(NC(=O)C(F)F)cc3C2)CC[C@@H]1n1c(C2CC2)nc2cc(C)ccc21` [Example 63, N-{(R)-2-[(3S,4S)-4-(2-Cyclopropyl-5-methyl-benzoimidazol-1-yl)-3-methoxy-piperidin-1-ylmethyl]-indan-5-yl}-2,2-difluoro-acetamide], < 20 nM. Then `COC1CN(C[C@@H]2Cc3ccc(NC(=O)C4CC4)cc3C2)CCC1n1c(C(C)C)nc2cc(C)ccc21` (stereo partly drawn) [Example 64, Cyclopropanecarboxylic acid {(R)-2-[4-(2-isopropyl-5-methyl-benzoimidazol-1-yl)-3-methoxy-piperidin-1-ylmethyl]-indan-5-yl}-amide], with < 20 nM; and `CO[C@H]1CN(C[C@@H]2Cc3ccc(NC(=O)C(C)C)cc3C2)CC[C@@H]1n1c(C2CC2)nc2cc(C)ccc21` [Example 65, N-{(R)-2-[(3S,4S)-4-(2-Cyclopropyl-5-methyl-benzoimidazol-1-yl)-3-methoxy-piperidin-1-ylmethyl]-indan-5-yl}-isobutyramide], with < 20 nM; and `CO[C@H]1CN(C[C@@H]2Cc3ccc(NC(=O)C(F)F)cc3C2)CC[C@@H]1n1c(C(C)C)nc2cc(C)ccc21` [Example 67, 2,2-Difluoro-N-{(R)-2-[(3S,4S)-4-(2-isopropyl-5-methyl-benzoimidazol-1-yl)-3-methoxy-piperidin-1-ylmethyl]-indan-5-yl}-acetamide], with < 20 nM. Then `COC1CN(C[C@@H]2Cc3ccc(NC(=O)C(C)C)cc3C2)CCC1n1c(C(C)C)nc2cc(C)ccc21` (stereo partly drawn) [Example 68, N-{(R)-2-[4-(2-Isopropyl-5-methyl-benzoimidazol-1-yl)-3-methoxy-piperidin-1-ylmethyl]-indan-5-yl}-isobutyramide], with < 20 nM; and `CCC(=O)Nc1ccc2c(c1)C[C@H](CN1CCC(n3c(CC)nc4cc(C)ccc43)C(OC)C1)C2` (stereo partly drawn) [Example 69, N-{(R)-2-[4-(2-Ethyl-5-methyl-benzoimidazol-1-yl)-3-methoxy-piperidin-1-ylmethyl]-indan-5-yl}-propionamide], with < 20 nM.

In the case of `CCc1nc2cc(C)ccc2n1C1CCN(CC2Cc3ccc(NC(=O)C(C)C)cc3C2)CC1` (stereo not shown) [Example 70, N-{2-[4-(2-Ethyl-5-methyl-benzoimidazol-1-yl)-piperidin-1-ylmethyl]-indan-5-yl}-isobutyramide], the IC50 was < 20 nM. With `COC(=O)Nc1ccc2c(c1)C[C@H](CN1CC[C@H](n3c(C4CC4)nc4cc(C)ccc43)[C@@H](OC)C1)C2` [Example 71, {(R)-2-[(3S,4S)-4-(2-Cyclopropyl-5-methyl-benzoimidazol-1-yl)-3-methoxy-piperidin-1-ylmethyl]-indan-5-yl}-carbamic acid methyl ester], the half-inhibitory concentration (IC50) was < 20 nM.

With `CCc1nc2cc(C)ccc2n1C1CCN(C[C@@H]2Cc3ccc(NC(=O)C4CC4)cc3C2)CC1OC` (stereo partly drawn) [Example 72, Cyclopropanecarboxylic acid {(R)-2-[4-(2-ethyl-5-methyl-benzoimidazol-1-yl)-3-methoxy-piperidin-1-ylmethyl]-indan-5-yl}-amide], the IC50 fell in the range of 20 to 200 nM. Take `CO[C@@H]1CN(C[C@@H]2Cc3ccc(NC(=O)C(C)C)cc3C2)CC[C@H]1n1c(C2CC2)nc2cc(C)ccc21` [Example 73, N-{(R)-2-[(3R,4R)-4-(2-Cyclopropyl-5-methyl-benzoimidazol-1-yl)-3-methoxy-piperidin-1-ylmethyl]-indan-5-yl}-isobutyramide]: the IC50 is 20 to 200 nM. Consider `CCc1nc2cc(C)ccc2n1C1CCN(CC2Cc3ccc(NC(=O)C4CC4)cc3C2)CC1` (stereo not shown) [Example 74, Cyclopropanecarboxylic acid {2-[4-(2-ethyl-5-methyl-benzoimidazol-1-yl)-piperidin-1-ylmethyl]-indan-5-yl}-amide], for which the IC50 lay in the range of 20 to 200 nM. With `COC(=O)Nc1ccc2c(c1)C[C@H](CN1CC[C@@H](n3c(C4CC4)nc4cc(C)ccc43)[C@H](OC)C1)C2` [Example 75, {(R)-2-[(3R,4R)-4-(2-Cyclopropyl-5-methyl-benzoimidazol-1-yl)-3-methoxy-piperidin-1-ylmethyl]-indan-5-yl}-carbamic acid methyl ester], the 50% inhibitory concentration (IC50) was 20 to 200 nM. With `CCC(=O)Nc1ccc2c(c1)C[C@H](CN1CC[C@@H](n3c(C4CC4)nc4cc(C)ccc43)[C@H](OC)C1)C2` [Example 76, N-{(R)-2-[(3R,4R)-4-(2-Cyclopropyl-5-methyl-benzoimidazol-1-yl)-3-methoxy-piperidin-1-ylmethyl]-indan-5-yl}-propionamide] the figure was 20 to 200 nM; with `COC(=O)Nc1ccc2c(c1)C[C@H](CN1CC[C@@H](n3c(C(C)C)nc4cc(C)ccc43)[C@H](OC)C1)C2` [Example 77, {(R)-2-[(3R,4R)-4-(2-Isopropyl-5-methyl-benzoimidazol-1-yl)-3-methoxy-piperidin-1-ylmethyl]-indan-5-yl}-carbamic acid methyl ester], 20 to 200 nM.
